Like-named read-outs stand apart in the source and are kept apart here.
Tests used:
[1] = target: T1, RXRα LBD (Homo sapiens, UniProt P19793); experiment: HTRF-based SRC-1 co-activator recruitment assay; format: biochemical; settings: for EC50: HTRF; for competition with bexarotene in SRC-1 recruitment: titrated in the presence of 0.3 µM bexarotene
T1 construct: peptide to the RXRα LBD (aa 225–462) was studied
T1 sequence (P19793 225-462): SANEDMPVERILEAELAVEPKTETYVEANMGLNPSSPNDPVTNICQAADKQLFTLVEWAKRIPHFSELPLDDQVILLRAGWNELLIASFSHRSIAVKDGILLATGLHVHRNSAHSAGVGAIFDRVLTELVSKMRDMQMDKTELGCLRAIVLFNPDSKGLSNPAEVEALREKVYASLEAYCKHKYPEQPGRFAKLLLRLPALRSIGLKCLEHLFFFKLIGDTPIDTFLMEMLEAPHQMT
From the text: To examine whether PA can act as a modulator that activates RXRs in solution, we next performed homogenous time-resolved fluorescence resonance energy transfer (HTRF)-based co-regulator recruitment assays using a peptide derived from steroid receptor co-activator 1 (SRC-1) as established previously. In addition to PA, we also tested the RXR modulator potentials of myristic acid (MA; C14:0; C14H28O2; […]) and stearic acid (SA; C18:0; C18H36O2; […]).
Terbium cryptate as streptavidin conjugate (Cisbio Bioassays, Codolet, France) was used as the fluorescence resonance energy transfer (FRET) donor and stably coupled via an N-terminal biotin to the SRC-1-derived peptide (biotin-[…]) (Eurogentec Deutschland GmbH, Cologne, Germany), which contains the co-activator consensus motif, LxxLL. Recombinant RXRα LBD fused to N-terminal superfolder green fluorescent protein (sGFP) served as the FRET acceptor. Coactivator recruitment by the RXRα LBD brings FRET donor and acceptor into close proximity, resulting in a gain in the FRET signal as indicator for binding. […] Fluorescence intensities (FI) at 520 nm (acceptor) and 620 nm (donor reference) after excitation at 340 nm were recorded on a Tecan Spark luminometer equipped with enhanced fluorescence module (Tecan) after 2 h of incubation at room temperature. To obtain dimensionless HTRF, FI520 nm was divided by FI620 nm and multiplied with 10,000. The recruitment of the SRC-1-derived peptide to the RXRα LBD was validated with increasing concentrations of SR11237.

[2] = target: T2, RXRγ (Homo sapiens, UniProt P48443); experiment: Gal4 hybrid reporter gene assay RXRγ; format: cell-based; settings: HEK293T; at 100 µM concentrations and above
T2 construct: pFA-CMV-hRXRγ-LBD (NR2B3, UniProt entry: P48443-1, aa 229–463); expressed in transfected cells; host or cells: HEK293T
T2 sequence (P48443 229-463): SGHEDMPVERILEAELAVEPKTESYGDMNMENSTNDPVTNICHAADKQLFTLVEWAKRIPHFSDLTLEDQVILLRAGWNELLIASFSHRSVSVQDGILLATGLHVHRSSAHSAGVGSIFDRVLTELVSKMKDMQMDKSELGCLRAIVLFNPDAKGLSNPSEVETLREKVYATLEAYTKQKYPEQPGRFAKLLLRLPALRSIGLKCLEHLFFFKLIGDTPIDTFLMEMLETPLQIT
Procedure: The Gal4 hybrid reporter gene assays for RXRα, RXRβ and RXRγ were performed as described previously using the Gal4-fusion receptor plasmids pFA-CMV-hRXRα-LBD (NR2B1, UniProt entry: P19793, aa 225–462), pFA-CMV-hRXRβ-LBD (NR2B2, UniProt entry: P28702-1, aa 294–533) and pFA-CMV-hRXRγ-LBD (NR2B3, UniProt entry: P48443-1, aa 229–463), which code for the hinge region and LBD of the canonical RXR isoform. pFR-Luc (Stratagene, San Diego, CA, USA) as the reporter plasmid and pRL-SV40 (Promega, Madison, WI, USA) as the internal control were used. HEK293T cells were grown in DMEM high-glucose medium (supplemented with 10% fetal calf serum (FCS), sodium pyruvate (1 mM), penicillin (100 U/mL) and streptomycin (100 μg/mL)) at 37 °C and 5% CO2, and seeded in 96-well plates (3.0 × 10^4 cells/well) on the day before transfection. Right before transfection, medium was changed to Opti-MEM without supplements and cells were transiently transfected using the Lipofectamine LTX reagent (Invitrogen, Carlsbad, CA, USA) according to the manufacturer’s protocol with pFR-Luc (Stratagene), pRL-SV40 (Promega) and the respective pFA-CMV-hRXR-LBD clone. After 5 h of incubation, medium was changed to Opti-MEM (supplemented with penicillin (100 U/mL) and streptomycin (100 μg/mL)) additionally containing 0.1% DMSO and the respective test compounds or 0.1% DMSO alone as the untreated control. After overnight incubation (12–14 h), cells were assayed for luciferase activity using the Dual-Glo luciferase assay system (Promega) according to the manufacturer’s protocol on a Tecan Spark M10 luminometer (Tecan Deutschland GmbH, Crailsheim, Germany). Each sample was tested in at least three biologically independent repeats in duplicates. Data were normalized for transfection efficiency and cell growth by division of firefly luciferase data by Renilla luciferase data and multiplying by 1000 to obtain relative light units (RLUs). Fold activation denotes the mean RLU of test compounds at a respective concentration divided by the mean RLU of untreated control. […]

[3] = cell-free, compound alone, read-out: EC50 SRC-1 recruitment to RXRα
[4] = in the presence of 0.3 µM bexarotene, read-out: EC50 SRC-1 recruitment to RXRα in the presence of 0.3 µM bexarotene

SMILES	EC50 ([1]; EC50 SRC-1 recruitment to RXRα in the presence of 0.3 µM bexarotene, in the presence of 0.3 µM bexarotene) [µM]	EC50 [1, 3] [µM]	competition with bexarotene in SRC-1 recruitment [1]	RXRγ activation in Gal4 hybrid reporter gene assay [2]	EC50 [1, 4] [µM]
CCCCCCCCCCCCCC(=O)O [MA, myristic acid]	2.9	3.2	no competition	activated	
CCCCCCCCCCCCCCCC(=O)O [PA, palmitic acid]		6.6	no competition	activated	3.1
CCCCCCCCCCCCCCCCCC(=O)O [SA, stearic acid]		19	no competition	activated	14

— paper PMC7697888, “Comprehensive Set of Tertiary Complex Structures and Palmitic Acid Binding Provide Molecular Insights into Ligand Design for RXR Isoforms” (International Journal of Molecular Sciences, 2020)
